± gives the standard deviation of the averaged measurements.
What was measured:
GEFITINIB [1] = compound: T1, COc1cc2ncnc(Nc3ccc(F)c(Cl)c3)c2cc1OCCCN1CCOCC1 [GEFITINIB]; assay: surviving fraction relative to DMSO-only wells; higher = less growth inhibition; conditions: exposure time: 5 days
Outline: (§1)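 Continuous five-day exposure to inhibitors at 0.5, 1, 5, 10, 50, 100, 500 and 1000 nM started 24 hours after log-phase tumour cell lines were seeded at 250–500 cells per well in 384-well plates. Luminescence was read after 10 minutes at room temperature. Viability is given as surviving fraction, meaning CellTiter-Glo luminescence normalised to the median of DMSO-only wells.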

OSI-906 [2] = compound: T2, C[C@]1(O)C[C@@H](c2nc(-c3ccc4ccc(-c5ccccc5)nc4c3)c3c(N)nccn32)C1 [OSI-906]; assay: as above; conditions: exposure time: 5 days
Outline: as §1

CELECOXIB = compound: Cc1ccc(-c2cc(C(F)(F)F)nn2-c2ccc(S(N)(=O)=O)cc2)cc1 [CELECOXIB]; assay: as above; conditions: exposure time: 5 days
Outline: as §1

CARBOPLATIN [3] = compound: T3, O=C(O)C1(C(=O)O)CCC1.[NH2-].[NH2-].[Pt+2] [CARBOPLATIN]; assay: as above; conditions: exposure time: 5 days
Outline: as §1

[4] = compound: CC(=O)NCC(=O)N1[C@@H]2CC[C@H]1c1ccc(Nc3ncc(C(F)(F)F)c(NC4CCC4)n3)cc12; assay: area under dose-response curve of surviving fraction (unscaled, Aref=0) (surviving fraction x log10(nM)); higher = more resistant; conditions: exposure time: 5 days; dose range 0.5-1000 nM
Outline: (§2)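 Three screens per tumour cell line were run in 384-well plates at eight inhibitor concentrations from 0.5 to 1000 nM over five days. Surviving fractions, from CellTiter-Glo luminescence normalised to DMSO-only wells, were fitted with 3-parameter logistic curves in the drc R package. The reported area under the curve is the unscaled activity area. It spans log10 dose, and Aref is 0.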

PACLITAXEL = compound: CC(=O)O[C@H]1C(=O)[C@@]2(C)[C@H]([C@H](OC(=O)c3ccccc3)[C@]3(O)C[C@H](OC(=O)[C@H](O)[C@@H](NC(=O)c4ccccc4)c4ccccc4)C(C)=C1C3(C)C)[C@]1(OC(C)=O)CO[C@@H]1C[C@@H]2O [PACLITAXEL]; assay: as above; conditions: exposure time: 5 days; dose range 0.5-1000 nM
Outline: as §2

[5] = compound: CC(=O)c1c(C)c2cnc(Nc3ccc(N4CCNCC4)cn3)nc2n(C2CCCC2)c1=O; assay: as above; conditions: exposure time: 5 days; dose range 0.5-1000 nM
Outline: as §2

CAMPTOTHECIN = compound: CC[C@@]1(O)C(=O)OCc2c1cc1n(c2=O)Cc2cc3ccccc3nc2-1 [CAMPTOTHECIN]; assay: as above; conditions: exposure time: 5 days; dose range 0.5-1000 nM
Outline: as §2

YM155 = compound: COCC[n+]1c2c(n(Cc3cnccn3)c1C)C(=O)c1ccccc1C2=O [YM155]; assay: as above; conditions: exposure time: 5 days; dose range 0.5-1000 nM
Outline: as §2

GEFITINIB [6] = compound: T1, GEFITINIB; assay: as above; conditions: exposure time: 5 days; dose range 0.5-1000 nM
Outline: as §2

OSI-906 [7] = compound: T2, OSI-906; assay: as above; conditions: exposure time: 5 days; dose range 0.5-1000 nM
Outline: as §2

CARBOPLATIN [8] = compound: T3, CARBOPLATIN; assay: as above; conditions: exposure time: 5 days; dose range 0.5-1000 nM
Outline: as §2

For HUO3N1 BONE, which surviving fraction (GEFITINIB [1]; 0.5 nM) is on record?
Its surviving fraction is 0.977 ± 0.032.

And the surviving fraction (GEFITINIB [1]; 1 nM)?
Its surviving fraction is 0.972 ± 0.053.

And the surviving fraction (GEFITINIB [1]; 5 nM)?
Its surviving fraction is 1.05 ± 0.022.

What about the surviving fraction (GEFITINIB [1]; 10 nM) of the same test system?
The surviving fraction was 1.04 ± 0.018.

What about the surviving fraction (GEFITINIB [1]; 50 nM) of the same test system?
The surviving fraction was 1.08 ± 0.044.

What about the surviving fraction (GEFITINIB [1]; 100 nM) of the same test system?
The surviving fraction was 1.05 ± 0.039.

And the surviving fraction (GEFITINIB [1]; 500 nM)?
Its surviving fraction is 0.991 ± 0.052.

What about the surviving fraction (GEFITINIB [1]; 1000 nM) of the same test system?
The surviving fraction was 0.974 ± 0.052.

What about the surviving fraction (OSI-906 [2]; 0.5 nM) of the same test system?
Its surviving fraction is 0.938 ± 0.09.

What about the surviving fraction (OSI-906 [2]; 1 nM) of the same test system?
Its surviving fraction is 0.933 ± 0.068.

What about the surviving fraction (OSI-906 [2]; 5 nM) of the same test system?
Its surviving fraction is 0.948 ± 0.082.

What about the surviving fraction (OSI-906 [2]; 10 nM) of the same test system?
The surviving fraction was 0.92 ± 0.053.

What about the surviving fraction (OSI-906 [2]; 50 nM) of the same test system?
The surviving fraction was 0.975 ± 0.047.

And the surviving fraction (OSI-906 [2]; 100 nM)?
Its surviving fraction is 0.88 ± 0.029.

What about the surviving fraction (OSI-906 [2]; 500 nM) of the same test system?
The surviving fraction was 0.779 ± 0.031.

And the surviving fraction (OSI-906 [2]; 1000 nM)?
The surviving fraction was 0.794 ± 0.035.

What about the surviving fraction (CELECOXIB; 0.5 nM) of the same test system?
The surviving fraction was 1.03 ± 0.04.

And the surviving fraction (CELECOXIB; 1 nM)?
Its surviving fraction is 0.998 ± 0.039.

What about the surviving fraction (CELECOXIB; 5 nM) of the same test system?
The surviving fraction was 1.06 ± 0.057.

What about the surviving fraction (CELECOXIB; 10 nM) of the same test system?
Its surviving fraction is 1.08 ± 0.061.

And the surviving fraction (CELECOXIB; 50 nM)?
Its surviving fraction is 1.12 ± 0.017.

What about the surviving fraction (CELECOXIB; 100 nM) of the same test system?
The surviving fraction was 1.02 ± 0.039.

And the surviving fraction (CELECOXIB; 500 nM)?
The surviving fraction was 1 ± 0.023.

What about the surviving fraction (CELECOXIB; 1000 nM) of the same test system?
Its surviving fraction is 0.974 ± 0.036.

And the surviving fraction (CARBOPLATIN [3]; 0.5 nM)?
Its surviving fraction is 1.08 ± 0.016.

And the surviving fraction (CARBOPLATIN [3]; 1 nM)?
Its surviving fraction is 1.06 ± 0.061.

What about the surviving fraction (CARBOPLATIN [3]; 5 nM) of the same test system?
The surviving fraction was 1.13 ± 0.065.

And the surviving fraction (CARBOPLATIN [3]; 10 nM)?
The surviving fraction was 1.12 ± 0.046.

And the surviving fraction (CARBOPLATIN [3]; 50 nM)?
Its surviving fraction is 1.11 ± 0.05.

What about the surviving fraction (CARBOPLATIN [3]; 100 nM) of the same test system?
The surviving fraction was 1.09 ± 0.034.

And the surviving fraction (CARBOPLATIN [3]; 500 nM)?
Its surviving fraction is 1.05 ± 0.016.

And the surviving fraction (CARBOPLATIN [3]; 1000 nM)?
Its surviving fraction is 0.98 ± 0.068.

What about the “area under dose-response curve” value [4] of the same test system?
The value was 3.12.

And the “area under dose-response curve” value (PACLITAXEL)?
Its value is 0.938.

What about the “area under dose-response curve” value [5] of the same test system?
The value was 3.42.

And the “area under dose-response curve” value (CAMPTOTHECIN)?
The value was 1.37.

What about the “area under dose-response curve” value (YM155) of the same test system?
The value was 2.22.

And the “area under dose-response curve” value (GEFITINIB [6])?
Its value is 3.38.

And the “area under dose-response curve” value (OSI-906 [7])?
The value was 2.99.

What about the “area under dose-response curve” value (CARBOPLATIN [8]) of the same test system?
The value was 3.59.
